Entries after “also recorded” stand apart in the source; their conditions may differ.
How the values were obtained:
[1] = system: N. gonorrhoeae F62 ΔIgtD; format: cell-based; design: key to Serum resistance: high: >100% survival in 10% serum; low: >100% survival in 3.3% serum and <10% survival in 10% serum; conditions: for Serum resistance: summary Table 1; for bacterial survival / serum resistance: all serum concentrations tested (10, 6.7, 3.3%), 30 μM; for serum resistance mediated by CMP-Neu5Ac: analogue 20, 2 or 0.2 μg/ml added 15 min after CMP-Neu5Ac 20 μg/ml, grown 2 h; for killing of bacteria made serum resistant by CMP-Neu5Ac: analogue added 120 min after CMP-Neu5Ac, data not shown
Experimental: FIG. 2. […] N. gonorrhoeae F62 ΔIgtD was grown in media alone (no CMP-sialic acid added), or media that contained 20 μg/ml (˜30 μM) of each of the indicated CMP-nonulosonates. Resistance of bacteria to complement-dependent killing in the presence of 3.3%, 6.7% or 10% normal human serum (NHS) was measured in serum bactericidal assays.
FIG. 5. […] N. gonorrhoeae F62 ΔIgtD was suspended in media containing 20 μg/ml (˜30 μM) CMP-Neu5Ac. Following 15 min of incubation at 37° C., CMP-Neu5Ac9Az or CMP-Leg5Ac7Ac (at concentrations of 20, 2 or 0.2 μg/ml final) were added and bacteria were incubated for 2 h. Serum bactericidal assays were then performed using 3.3% (solid black bars) or 10% (hatched bars) NHS. Controls included bacteria in media that lacked any CMP-nonulosonate, or bacteria that were incubated in CMP-Neu5Ac only. Y-axis, % survival.
We next determined the effects of incorporation of the CMP salts of five structural analogues of Neu5Ac (Neu5Gc, Neu5Ac9Ac, Neu5Ac9Az, Neu5Gc8Me and Leg5Ac7Ac) on the ability of N. gonorrhoeae F62 ΔIgtD to resist complement-dependent killing by normal human serum at concentrations of 10, 6.7 or 3.3%. Bacteria were grown either in media alone, or media supplemented with 30 μM (˜20 μg/ml) of each of the CMP-nonulosonates.
The ability of two of the CMP-nonulosonates, CMP-Neu5Ac9Az and CMP-Leg5Ac7Ac, to counter the ability of CMP-Neu5Ac to enhance serum resistance of N. gonorrrhoeae was then examined. The analogues were added at concentrations of 20, 2 or 0.2 μg/ml to growth media 15 min after the addition of CMP-Neu5Ac (20 μg/ml) to F62 ΔIgtD.
Serum bactericidal assays were performed as described previously (11). Bacteria harvested from an overnight culture on chocolate agar plates were grown in liquid media containing the specified concentration of CMP-nonulosonate as specified for each experiment. Approximately 2000 CFU of F62 ΔIgtD were incubated with NHS (concentration specified for each experiment). The final reaction volumes were maintained at 150 μl. […]

[2] = target: T1, gonococcal LOS sialyltransferase (Lst) (Neisseria gonorrhoeae, UniProt P72074); format: cell-based, N. gonorrhoeae; conditions: CMP salt 30 μM (20 μg/ml), 2 h at 37° C.
T1 construct: served as substrates for gonococcal Lst in the context of live bacteria; endogenous in cells; host or cells: N. gonorrhoeae F62 ΔlgtD (live bacteria)
T1 sequence (P72074 whole entry): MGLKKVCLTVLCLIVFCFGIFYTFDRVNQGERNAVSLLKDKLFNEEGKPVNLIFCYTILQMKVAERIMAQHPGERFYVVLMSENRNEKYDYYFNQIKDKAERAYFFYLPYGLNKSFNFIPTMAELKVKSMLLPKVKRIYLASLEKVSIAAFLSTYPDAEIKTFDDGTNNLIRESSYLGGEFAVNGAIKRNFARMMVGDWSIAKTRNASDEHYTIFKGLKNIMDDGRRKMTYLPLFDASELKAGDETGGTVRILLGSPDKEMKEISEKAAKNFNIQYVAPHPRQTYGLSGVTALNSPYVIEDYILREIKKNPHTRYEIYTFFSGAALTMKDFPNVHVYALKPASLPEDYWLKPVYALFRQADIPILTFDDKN
Experimental: FIG. 1. Substrate specificity of gonococcal LOS sialyltransferase (Lst) N. gonorrhoeae strain F62 ΔIgtD was grown in standard gonococcal liquid media alone (‘No sialic acid’) or in media supplemented with CMP salts of the indicated sialic acid or nonulosonic acid, each at a concentration of 20 μg/ml (˜30 μM), for 2 h at 37° C. Bacteria were washed, pellets treated with protease K, lysed in 4×LDS buffer and lysates were separated on 12% Bis-Tris gels using MES running buffer. LOS was transferred to a PVDF membrane and probed with mAb 3F11 that recognizes the lacto-N-neotetraose only in the non-sialylated state; the addition of a sialic acid or nonulosonate residue abrogates mAb 3F11 binding (upper panel). LOS was also visualized by silver staining (middle panel). Sialylation or nonulosonate (NulO) modification was also quantified using whole cell ELISA with mAb 3F11 (lower graph).
To define the substrate specificity of gonococcal LOS sialyltransferase, N. gonorrhoeae F62 ΔIgtD was grown in media alone, or media that contained the CMP-activated derivatives of 7 nonulosonates (listed in Table 1), each at a concentration of 30 μM (20 μg/ml). Following incubation for 2 h at 37° C., bacteria were washed, lysed with protease K/LDS sample buffer and separated on 12% Bis-tris gels. Blots were probed with mAb 3F11, which binds to the terminal lactosamine residue of lacto-N-neotetraose (LNT); any extension beyond the terminal Gal (in this instance with a nonose) would abrogate 3F11 binding. […] Whole cell ELISA with mAb 3F11 confirmed results of western blotting (FIG. 1, lower graph).
Bacteria (F62 ΔIgtD) grown overnight on chocolate agar plates were suspended in gonococcal liquid media supplemented with IsoVitaleX (11) that contained specified concentrations of the CMP-nonulosonate. Bacteria were then incubated at 37° C. for the period specified in each experiment.
Gonococcal lysates treated with protease K (100 μg/ml) and NuPAGE® LDS Sample Buffer (4×) (Invitrogen) were separated on NuPAGE® 12% Bis-Tris (Invitrogen) gels using Novex® MES running buffer (Invitrogen) followed by sliver staining with the Bio-Rad Silver Stain Kit, or were transferred to an Immobilon PVDF membrane (Millipore). Membranes were blocked with PBS/1% milk and probed with tissue culture supernatants that contained mAb 3F11. mAb 3F11-reactive LOS bands were disclosed with anti-mouse IgM conjugated to alkaline phosphatase followed by the addition of BCIP®/NBT-Purple Liquid Substrate (Sigma).

Row | Compound | bacterial survival ([1]; CMP-Neu5Ac 20 μg/ml, 32 min exposure, 10% NHS) | resistance to 10% serum ([1]; CMP-nonulosonate 3 μM (~2 μg/ml), 10% serum) | Serum resistance [1] | mAb 3F11 binding / incorporation of nonulosonate onto LNT LOS (use as Lst substrate) [2] | bacterial survival / serum resistance [1] | serum resistance mediated by CMP-Neu5Ac [1] | killing of bacteria made serum resistant by CMP-Neu5Ac [1]
1 | CC(=O)NC1C(O)CC(OP(=O)(O)OCC2OC(n3ccc(N)nc3=O)C(O)C2O)(C(=O)O)OC1C(O)C(O)CO [CMP-Neu5Ac, CMP-5-acetamido-3,5-dideoxy-D-glycero-D-galacto-nonulosonic acid, reference compound] | ~42% | conferred resistance | high^B (>100% survival in 10% serum) | decreased binding of mAb 3F11 |  |  | 
2 | COC(CO)C(O)C1OC(OP(=O)(O)OCC2OC(n3ccc(N)nc3=O)C(O)C2O)(C(=O)O)CC(O)C1NC(=O)CO [CMP-Neu5Gc8Me, CMP-5-hydroxyacetamido-8-O-methyl-3,5-dideoxy-D-glycero-D-galacto-nonulosonic acid] |  |  | low | decreased binding of mAb 3F11 |  |  | 
3 | 5,7-diacetamido-3,5,7,9-tetradeoxy-D-glycero-D-galacto-nonulosonic acid [CMP-Leg5Ac7Ac] |  |  | none | decreased binding of mAb 3F11; also recorded: least incorporated | did not increase bacterial survival | blocked serum resistance; also recorded: completely blocked | did not induce any killing
4 | CC(=O)N[C@H]1[C@H]([C@H](O)[C@H](O)COC(C)=O)OC(OP(=O)(O)OC[C@H]2O[C@@H](n3ccc(N)nc3=O)[C@H](O)[C@@H]2O)(C(=O)O)C[C@@H]1O (stereo partly drawn) [CMP-Neu5Ac9Ac, CMP-5-acetamido-9-O-acetyl-3,5-dideoxy-D-glycero-D-galacto-nonulosonic acid] |  |  | low^C | decreased binding of mAb 3F11 |  |  | 
5 | CC(=O)N[C@H]1[C@H]([C@H](O)[C@H](O)CN=[N+]=[N-])OC(OP(=O)(O)OC[C@H]2O[C@@H](n3ccc(N)nc3=O)[C@H](O)[C@@H]2O)(C(=O)O)C[C@@H]1O (stereo partly drawn) [CMP-Neu5Ac9Az, CMP-5-acetamido-9-azido-3,5,9-trideoxy-D-glycero-D-galacto-nonulosonic acid] |  |  | none | decreased binding of mAb 3F11 | did not increase bacterial survival | blocked serum resistance; also recorded: completely blocked | did not induce any killing
